Measured values reported in PMC9237828, “Chemically Tuning Resveratrol for the Effective Killing of Gram-Positive Pathogens” (Journal of Natural Products, 2022).
Converted amounts (≈) assume the structure as drawn.

What was measured:
C. perfringens CECT376 = experiment: microbe, parasite or virus in culture; type: cell-based; settings: Clostridium perfringens, CECT376, 24 h, read-out: Minimal Inhibition Concentration (MIC) C. perfringens CECT376
C. beijerinckii B504 = experiment: MIC test, anaerobes; type: cell-based; settings: Clostridium beijerinckii, B504, 24 h; read-out: Minimal Inhibition Concentration (MIC) C. beijerinckii B504
Procedure: (§1) The resveratrol derivatives were serially diluted in cMHB (BD Difco) in 96-well microplates. Plates were then inoculated with the indicator bacteria at a final concentration of 5 × 10^5 CFU/mL and incubated at 37 °C for 20 h. In the case of the anaerobic bacteria (Clostridium and Clostridioides), the test was performed following the recommendation of CLSI for anaerobes[77] but using RCM medium instead of cMHB. The cultures were cultivated inside an anaerobic chamber at 37 °C for 24 h. All the tests were performed in triplicate.

C. ihumii AP5 = experiment: MIC test, anaerobes; type: cell-based; settings: 24 h; read-out: Minimal Inhibition Concentration (MIC) C. ihumii AP5
Procedure: as §1

C. tetani CECT4629 = experiment: microbe, parasite or virus in culture; type: cell-based; settings: Clostridium tetani, CECT4629, 24 h, read-out: Minimal Inhibition Concentration (MIC) C. tetani CECT4629
C. botulinum CECT551 = experiment: microbe, parasite or virus in culture; type: cell-based; settings: Clostridium botulinum, CECT551, 24 h, read-out: Minimal Inhibition Concentration (MIC) C. botulinum CECT551
[1] = system: panel of aerobic and anaerobic Gram-positive bacteria; experiment: organism not typed; type: cell-based
E. faecium LMG16003 = experiment: Combined action with antibiotics (MIC reduction, checkerboard FICI); type: cell-based
S. aureus LMG8224 = experiment: as above; type: cell-based, Staphylococcus aureus; settings: for MIC of antibiotic in combination with RES: RES at 4 μM; for FICI, antibiotic with 15 / FICI, antibiotic with 17: fractional inhibitory concentration index, EUCAST, * means relevant FICI values
[2] = fractional inhibitory concentration index, EUCAST, * means relevant FICI values

Compound | MIC (C. beijerinckii B504) [µM] | MIC (C. tetani CECT4629) [µM] | MIC (C. botulinum CECT551) [µM] | antibacterial activity against the Gram-positive panel [1] | MIC of antibiotic alone (Ab) (E. faecium LMG16003) [µM] | MIC of antibiotic in combination with 15 (S. aureus LMG8224; 15 at 2 μM) [µM] | MIC of antibiotic in combination with 15 (S. aureus LMG8224; 15 at 4 μM) [µM] | MIC of antibiotic in combination with 17 (S. aureus LMG8224; 17 at 2 μM) [µM] | MIC of antibiotic in combination with 17 (S. aureus LMG8224; 17 at 4 μM) [µM] | MIC of antibiotic in combination with RES (S. aureus LMG8224) [µM] | MIC of antibiotic alone (Ab) (S. aureus LMG8224) [µM] | FICI, antibiotic with 15 (S. aureus LMG8224) | FICI, antibiotic with 17 (S. aureus LMG8224) | further results
CC(C)(C)[Si](C)(C)Oc1ccc(/C=C/c2cc(OS(=O)(=O)O)cc(OS(=O)(=O)O)c2)cc1 [compound 34, 3,5-Disulfate-4′-tert-butyldimethylsilyl resveratrol] | 32 (≈ 16.1 µg/mL) | 5.3 ± 1.3 (≈ 2.66 µg/mL) | 53.3 ± 10.6 (≈ 26.8 µg/mL) | – | – | – | – | – | – | – | – | – | – | MIC (C. perfringens CECT376): 128 µM (≈ 64.3 µg/mL); MIC (C. ihumii AP5): 128 µM (≈ 64.3 µg/mL)
Resveratrol-3-glucuronate [compound 8] | – | – | – | did not show antibiotic activity | – | – | – | – | – | – | – | – | – | –
NC[C@H]1O[C@H](O[C@H]2[C@H](O)[C@@H](O[C@H]3O[C@H](CO)[C@@H](O)[C@H](N)[C@H]3O)[C@H](N)C[C@@H]2N)[C@H](O)[C@@H](O)[C@@H]1O [Kan, kanamycin] | – | – | – | – | >32 | 2 ± 0 | 0.6 ± 0.1 | 2 ± 0 | 1 ± 0 | 4 ± 0 | 4 ± 0 | 0.41 | 0.75 | MIC of antibiotic in combination with 17 (E. faecium LMG16003; 17 at 4 μM): 32 ± 0 µM; FICI, antibiotic with 17 (E. faecium LMG16003; [2]): 1*
polymyxin B | – | – | – | – | >32 | 8 ± 0 | 1 ± 0 | 13.3 ± 1.8 | 6.6 ± 0.9 | >32 | >32 | 0.25* | 0.45* | MIC of antibiotic in combination with 15 (E. faecium LMG16003; 15 at 4 μM): 21.3 ± 3.7 µM; MIC of antibiotic in combination with 15 (E. faecium LMG16003; 15 at 8 μM): 1.8 ± 0.2 µM; MIC of antibiotic in combination with RES (E. faecium LMG16003; RES at 8 μM): >32 µM; FICI, antibiotic with 15 (E. faecium LMG16003; [2]): 0.27*
NCC[C@H](O)C(=O)N[C@@H]1C[C@H](N)[C@@H](O[C@H]2O[C@H](CN)[C@@H](O)[C@H](O)[C@H]2O)[C@H](O)[C@H]1O[C@H]1O[C@H](CO)[C@@H](O)[C@H](N)[C@H]1O [Ami, amikacin] | – | – | – | – | >32 | 2 ± 0 | 0.5 ± 0 | 3.3 ± 0.5 | 0.8 ± 0.1 | 8 ± 0 | 8 ± 0 | 0.31 | 0.60 | –
CC(C)(C)[Si](C)(C)Oc1ccc(/C=C/c2cc(O)cc(O[Si](C)(C)C(C)(C)C)c2)cc1 [compound 19] | 32 (≈ 14.6 µg/mL) | 5.3 ± 1.3 (≈ 2.42 µg/mL) | 53.3 ± 10.6 (≈ 24.3 µg/mL) | not active or displayed very low antibacterial activity | – | – | – | – | – | – | – | – | – | MIC (C. perfringens CECT376): 128 µM (≈ 58.5 µg/mL); MIC (C. ihumii AP5): 128 µM (≈ 58.5 µg/mL)
CC(C)(C)[Si](C)(C)Oc1cc(/C=C/c2ccc(O)cc2)cc(O[Si](C)(C)C(C)(C)C)c1 [compound 18] | – | – | – | not active or displayed very low antibacterial activity | – | – | – | – | – | – | – | – | – | –
O=S(=O)(O)Oc1ccc(/C=C/c2cc(O)cc(OS(=O)(=O)O)c2)cc1 [compound 7, Resveratrol 3,4′-disulfate] | – | – | – | did not show antibiotic activity | – | – | – | – | – | – | – | – | – | –
CCCCCCCC(=O)OC[C@H]1O[C@@H](Oc2cc(O)cc(/C=C/c3ccc(O)cc3)c2)[C@H](O)[C@@H](O)[C@@H]1O [compound 3] | 32 (≈ 16.5 µg/mL) | 21.3 ± 5.3 (≈ 11 µg/mL) | 32 (≈ 16.5 µg/mL) | – | – | – | – | – | – | – | – | – | – | –
